According to patent US6469013B2, “Therapeutic compounds” (Parker Hughes Institute, priority 1998, dated 2002):

Target: T1, recombinant murine JAK3 (Mus musculus, UniProt Q62137)
T1 sequence (Q62137 1-1100): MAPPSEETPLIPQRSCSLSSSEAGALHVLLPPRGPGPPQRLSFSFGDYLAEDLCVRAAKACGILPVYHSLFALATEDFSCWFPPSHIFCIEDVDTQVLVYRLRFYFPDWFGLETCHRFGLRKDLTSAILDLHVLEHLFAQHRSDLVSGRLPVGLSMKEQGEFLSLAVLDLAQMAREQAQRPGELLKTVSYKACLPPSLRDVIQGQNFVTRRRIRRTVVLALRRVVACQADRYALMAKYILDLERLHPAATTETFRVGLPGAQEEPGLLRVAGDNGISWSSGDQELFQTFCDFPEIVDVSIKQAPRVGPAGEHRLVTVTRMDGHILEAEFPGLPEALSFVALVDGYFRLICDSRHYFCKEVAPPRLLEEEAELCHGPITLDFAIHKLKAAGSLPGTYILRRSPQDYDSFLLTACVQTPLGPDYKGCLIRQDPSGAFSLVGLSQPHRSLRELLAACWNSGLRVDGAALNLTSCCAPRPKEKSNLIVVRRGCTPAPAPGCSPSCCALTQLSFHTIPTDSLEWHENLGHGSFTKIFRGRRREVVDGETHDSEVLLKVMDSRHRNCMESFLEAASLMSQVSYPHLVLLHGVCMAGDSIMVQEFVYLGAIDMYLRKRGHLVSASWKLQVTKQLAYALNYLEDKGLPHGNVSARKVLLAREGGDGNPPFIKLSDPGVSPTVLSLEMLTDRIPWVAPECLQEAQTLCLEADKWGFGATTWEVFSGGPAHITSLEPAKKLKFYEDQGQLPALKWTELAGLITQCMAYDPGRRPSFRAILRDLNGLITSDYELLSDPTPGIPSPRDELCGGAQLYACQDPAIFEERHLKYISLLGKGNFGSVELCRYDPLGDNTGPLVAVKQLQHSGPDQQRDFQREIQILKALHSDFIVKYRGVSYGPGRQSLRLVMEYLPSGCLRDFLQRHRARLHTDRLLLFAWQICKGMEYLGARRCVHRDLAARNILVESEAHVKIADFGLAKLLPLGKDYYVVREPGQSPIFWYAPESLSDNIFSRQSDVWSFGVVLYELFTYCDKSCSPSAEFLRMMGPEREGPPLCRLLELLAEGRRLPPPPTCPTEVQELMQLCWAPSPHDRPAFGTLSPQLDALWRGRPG
Test: Recombinant JAK3 immune complex kinase assay (baculovirus, Sf21)
Type: biochemical
Protocol: Sf21 (IPLB-SF21-AE) cells (Vassilev, A., et al., J. Biol. Chem. 274: 1646-1656, 1999) derived from the ovarian tissue of the fall armyworm Spodotera frugiperda, were obtained from Invitrogen (Carlsbad, Calif.) and maintained at 26-28° C. in Grace's insect cell medium supplemented with 10% FBS and 1.0% antibiotic/antimycotic (GIBCO-BRL). Stock cells were maintained in suspension at 0.2-1.6×10^6/ml in 600 ml total culture volume in 1 L Bellco spinner flasks at 60-90 rpm. Cell viability was maintained at 95-100% as determined by trypan blue dye exclusion. Sf21 cells were infected with a baculovirus expression vector for BTK, SYK, JAK1, JAK2, or JAK3. Cells were harvested, lysed (10 MM Tris pH7.6, 100 mM NaCl, 1% Nonidet P40, 10% glycerol, 50 mM NaF, 100 μM Na3VO4, 50 μg/ml phenylmethylsulfonyl fluoride, 10 μg/ml aprotonin, 10 μg/ml leupeptin), the kinases were immunoprecipitated from the lysates, and their enzymatic activity assayed, as reported (Vassilev, A., et al., J. Biol. Chem. 274: 1646-1656, 1999; Uckun, F. M., et al., Science. 22: 1096-1100, 1996; Goodman, P. A., et al., J. Biol. Chem. 273: 17742-48, 1998; Mahajan, S., et al., Mol. Cell. Biol. 15: 5304-11, 1995; and Uckun, F. M., et al., Science. 267: 886-91, 1995). The immunoprecipitates were subjected to Western blot analysis as previously described (Vassilev, A., et al., J. Biol. Chem. 274: 1646-1656, 1999; and Uckun, F. M., et al., Science. 22: 1096-1100, 1996).
In JAK3 immune complex kinase assays (17, 22), KL-2 EBV-transformed human lymphoblastoid B cells (native JAK3 kinase assays) or insect ovary cells (recombinant JAK3 kinase assays) were lysed with NP-40 lysis buffer (50 mM Tris, pH 8, 150 mM NaCl, 5 mM EDTA, 1% NP-40, 100 μM sodium orthovanadate, 100 μM sodium molybdate, 8 μg/ml aprotinin, 5 μg/ml leupeptin, and 500 μM PMSF) and centrifuged 10 min at 13000× g to remove insoluble material. Samples were immunoprecipitated with antisera prepared against JAK3. The antisera were diluted and immune complexes collected by incubation with 15 μl protein A Sepharose. After 4 washes with NP-40 lysis buffer, the protein A Sepharose beads were washed once in kinase buffer (20 mM MOPS, pH7, 10 mM MgCl2) and resuspended in the same buffer. Reactions were initiated by the addition of 25 μCi [γ^32P] ATP (5000 Ci/mMole) and unlabeled ATP to a final concentration of 5 μM. Reactions were terminated by boiling for 4 min in SDS sample buffer. Samples were run on 9.5% SDS polyacrylamide gels and labeled proteins were detected by autoradiography. […] For each drug concentration, a kinase activity index (KA) was determined by comparing the kinase activity in phosphorimager units (PIU) to that of the baseline sample. […]

COc1cc2ncnc(Nc3ccc(O)cc3)c2cc1OC [WHI-P131, 4-(4′-hydroxyl-phenyl)-amino-6,7-dimethoxyquinazoline]
IC50 (recombinant murine JAK3): 78 µM | IC50 (recombinant murine JAK3, converted from μg/ml): ~78 µM
